Measurements reported in patent US20250304551A1 (SHANGHAI APEIRON THERAPEUTICS COMPANY LIMITED, priority 2022, published 2025).

Columns and labels:
[1] = biological target: T1, Human KIF18A (amino acid sequence 1-417) (Homo sapiens, UniProt Q8NI77); assay: Enzyme activity detection experiment (ADP-Glo, KIF18A with tubulin and ATP); type: biochemical; details: tubulin 60 μg/mL, ATP 25 μM, KIF18A protein 2.5 nM, 120 minutes at ambient temperature, ADP-Glo chemiluminescence
T1 construct: purchased Viva Biotech (Shanghai) Ltd
How it was run: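 KIF18A (2.5 nM) was incubated with tubulin (60 μg/mL as added), ATP (25 μM) and serially diluted compound for 120 min at ambient temperature. ADP formed was detected by ADP-Glo: reagent for 30 min, then detection reagent for 30 min in the dark, with chemiluminescence read-out.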

OVCAR3 cells = assay: Cell proliferation activity test, OVCAR3 (CyQUANT Direct); type: cell-based; details: Homo sapiens, OVCAR-3, 72 h, 3 days incubation, CyQUANT fluorescence detection, read-out: OVCAR-3 Cell Viability_IC50_nM
How it was run: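 OVCAR3 cells seeded overnight, then exposed to compounds at 0-10 μM final (0.20% DMSO) for 3 days at 37° C. Cell number read by CyQUANT Direct fluorescence after 60 min at 37° C.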

HT29 cells = assay: CyQuant cell proliferation activity test, HT29; type: cell-based; details: Homo sapiens, HT-29, 72 h, HT29 2000 cells per well, 3 days incubation, initial concentration 3000 nM, IC50 by XLFIT, read-out: HT-29 Cell Viability_IC50_nM
How it was run: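 HT29 cells (2000/well, RPMI-1640 with 10% FBS) were plated overnight, then exposed to compound for 3 days at 37 °C, 5% CO2. Dosing was 9 concentrations, 3-fold dilutions from 3000 nM, in 0.20% DMSO. Proliferation was read with CyQuant reagent after 1 h, and IC50 derived from the curves.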

T1 sequence (Q8NI77 1-417): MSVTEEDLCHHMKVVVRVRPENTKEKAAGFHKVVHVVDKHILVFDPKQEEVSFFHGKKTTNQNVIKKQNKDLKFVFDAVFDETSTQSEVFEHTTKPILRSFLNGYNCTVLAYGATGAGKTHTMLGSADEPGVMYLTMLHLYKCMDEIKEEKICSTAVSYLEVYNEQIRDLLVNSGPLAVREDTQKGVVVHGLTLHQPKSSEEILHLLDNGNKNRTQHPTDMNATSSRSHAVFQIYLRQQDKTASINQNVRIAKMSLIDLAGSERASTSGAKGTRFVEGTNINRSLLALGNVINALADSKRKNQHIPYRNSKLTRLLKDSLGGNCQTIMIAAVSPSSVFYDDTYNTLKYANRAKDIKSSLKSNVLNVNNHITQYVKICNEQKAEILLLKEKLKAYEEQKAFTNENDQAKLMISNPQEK
T1 sequence (Q2XVP4 whole entry partner): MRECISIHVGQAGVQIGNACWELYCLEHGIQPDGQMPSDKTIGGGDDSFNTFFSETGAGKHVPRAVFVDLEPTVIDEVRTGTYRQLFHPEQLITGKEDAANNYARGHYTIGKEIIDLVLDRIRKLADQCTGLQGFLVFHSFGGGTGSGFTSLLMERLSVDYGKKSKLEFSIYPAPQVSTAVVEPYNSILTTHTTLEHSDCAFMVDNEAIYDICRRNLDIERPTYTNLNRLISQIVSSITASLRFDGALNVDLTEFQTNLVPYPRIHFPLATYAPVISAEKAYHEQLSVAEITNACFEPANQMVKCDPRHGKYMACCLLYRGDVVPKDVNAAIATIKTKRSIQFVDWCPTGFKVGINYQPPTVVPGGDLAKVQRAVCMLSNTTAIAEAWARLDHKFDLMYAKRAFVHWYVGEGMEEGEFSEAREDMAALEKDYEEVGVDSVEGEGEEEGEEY
T1 sequence (P02554 whole entry partner): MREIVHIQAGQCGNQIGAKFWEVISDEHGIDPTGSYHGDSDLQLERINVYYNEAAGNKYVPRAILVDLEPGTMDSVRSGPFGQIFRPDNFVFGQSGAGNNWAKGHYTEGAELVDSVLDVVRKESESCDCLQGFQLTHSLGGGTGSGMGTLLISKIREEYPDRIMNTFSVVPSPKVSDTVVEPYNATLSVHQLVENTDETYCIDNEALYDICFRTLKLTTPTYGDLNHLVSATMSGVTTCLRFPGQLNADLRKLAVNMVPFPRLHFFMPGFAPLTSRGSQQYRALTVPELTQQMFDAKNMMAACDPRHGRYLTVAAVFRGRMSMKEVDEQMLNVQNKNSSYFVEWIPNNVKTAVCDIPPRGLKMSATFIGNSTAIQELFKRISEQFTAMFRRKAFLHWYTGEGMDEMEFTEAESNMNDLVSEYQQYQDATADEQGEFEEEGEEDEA

Row | SMILES | IC50 [1] | IC50 (OVCAR3 cells) | IC50 (HT29 cells)
1 | Cc1cc(-c2cn(-c3ccc(NS(=O)(=O)[C@H](C)CO)cc3N3CCC4(CC3)CC4)nn2)nc(N2CCC(F)(F)CC2)n1 [Example 83, (2R)—N-(3-{6-azaspiro[2.5]octan-6-yl}-4-{4-[2-(4,4-difluoropiperidin-1-yl)-6-methylpyrimidin-4-yl]-1H-1,2,3-triazol-1-yl}phenyl)-1-hydroxypropane-2-sulfonamide] | 117 nM | 13 nM | 16 nM
2 | Cc1cc(-c2cn(-c3ccc(NS(=O)(=O)[C@@H](C)CO)cc3N3CCC4(CC3)CC4)nn2)nc(N2CCC(F)(F)CC2)n1 [Example 84, (2S)—N-(3-{6-azaspiro[2.5]octan-6-yl}-4-{4-[2-(4,4-difluoropiperidin-1-yl)-6-methylpyrimidin-4-yl]-1H-1,2,3-triazol-1-yl}phenyl)-1-hydroxypropane-2-sulfonamide] | 125 nM | 21 nM | 25 nM
3 | Cc1cc(-c2cn(-c3ccc(NS(=O)(=O)C4(CO)CC4)cc3N3CCC4(CC3)CC4)nn2)nc(N2CCC(F)(F)CC2)n1 [Example 85, N-(3-{6-azaspiro[2.5]octan-6-yl}-4-{4-[2-(4,4-difluoropiperidin-1-yl)-6-methylpyrimidin-4-yl]-1H-1,2,3-triazol-1-yl}phenyl)-1-(hydroxymethyl)cyclopropane-1-sulfonamide] | 188 nM | 25 nM | 34 nM
4 | Cc1cc(-c2cn(-c3ccc(NS(=O)(=O)C(C)(C)CO)cc3N3CCC4(CC3)CC4)nn2)nc(N2CCC(F)(F)CC2)n1 [Example 86, N-(3-{6-azaspiro[2.5]octan-6-yl}-4-{4-[2-(4,4-difluoropiperidin-1-yl)-6-methylpyrimidin-4-yl]-1H-1,2,3-triazol-1-yl}phenyl)-1-hydroxy-2-methylpropane-2-sulfonamide] | 162 nM | 22 nM | 21 nM
5 | Cc1cc(-c2cn(-c3ccc(NS(=O)(=O)CCO)cc3N3CCC(=C(F)F)CC3)nn2)nc(N2CCC(F)(F)CC2)n1 [Example 88, N-{3-[4-(difluoromethylidene)piperidin-1-yl]-4-{4-[2-(4,4-difluoropiperidin-1-yl)-6-methylpyrimidin-4-yl]-1H-1,2,3-triazol-1-yl}phenyl}-2-hydroxyethane-1-sulfonamide] | 118 nM | 29 nM | 52 nM
6 | Cc1cc(-n2cc(-c3ccc(NS(=O)(=O)[C@H](C)CO)cc3N3CCC4(CC3)CC4)nn2)nc(N2CCC(F)(F)CC2)n1 [Example 92, (2R)—N-(3-{6-azaspiro[2.5]octan-6-yl}-4-{1-[2-(4,4-difluoropiperidin-1-yl)-6-methylpyrimidin-4-yl]-1H-1,2,3-triazol-4-yl}phenyl)-1-hydroxypropane-2-sulfonamide] | 232 nM | 93 nM | 50 nM
7 | Cc1cc(-n2cc(-c3ccc(NS(=O)(=O)[C@@H](C)CO)cc3N3CCC4(CC3)CC4)nn2)nc(N2CCC(F)(F)CC2)n1 [Example 93, (2S)—N-(3-{6-azaspiro[2.5]octan-6-yl}-4-{1-[2-(4,4-difluoropiperidin-1-yl)-6-methylpyrimidin-4-yl]-1H-1,2,3-triazol-4-yl}phenyl)-1-hydroxypropane-2-sulfonamide] | 315 nM | 85 nM | 83 nM

More lines, now with the values ahead:

Row | IC50 [1] | IC50 (OVCAR3 cells) | IC50 (HT29 cells) | SMILES
8 | 61 nM | 36 nM | 40 nM | Cc1cc(-n2cc(-c3ccc(NS(=O)(=O)CCO)cc3N3CCC4(CC3)CC4)nn2)nc(N2CCC(F)(F)CC2)n1 [Example 89, N-(4-(1-(2-(4,4-difluoropiperidin-1-yl)-6-methylpyrimidin-4-yl)-1H-1,2,3-triazol-4-yl)-3-(6-azaspiro[2.5]octan-6-yl)phenyl)-2-hydroxyethanesulfonamide]
9 | 16 nM | 44 nM | 62 nM | COc1cc(-n2cc(-c3ccc(NS(=O)(=O)CCO)cc3N3CCC4(CC3)CC4)nn2)nc(N2CCC(F)(F)CC2)n1 [Example 90, N-(3-{6-azaspiro[2.5]octan-6-yl}-4-{1-[2-(4,4-difluoropiperidin-1-yl)-6-methoxypyrimidin-4-yl]-1H-1,2,3-triazol-4-yl}phenyl)-2-hydroxyethane-1-sulfonamide]
10 | 278 nM | 87 nM | 126 nM | Cc1cc(-n2cc(-c3ccc(NS(=O)(=O)CCO)cc3N3CCC4(CC3)CC4)nn2)cc(N2CCC(F)(F)CC2)n1 [Example 91]
11 | 227 nM | 92 nM | 57 nM | O=S(=O)(CCO)Nc1ccc(-c2cn(-c3cc(N4CCC(F)(F)CC4)c4ncccc4c3)nn2)c(N2CCC3(CC2)CC3)c1 [Example 94, N-(4-(1-(8-(4,4-difluoropiperidin-1-yl)quinolin-6-yl)-1H-1,2,3-triazol-4-yl)-3-(6-azaspiro[2.5]octan-6-yl)phenyl)-2-hydroxyethane-1-sulfonamide]
